The target of this data set is IRF4. Particulars: ASO.

Values joined by “and” are separate entries in the source; they are usually repeats but may differ in a detail not shown here. Equal values may be shown once. After the bases stand the sugars from the 5' end (letter, count) and the backbone: PS all phosphorothioate, else s phosphorothioate and o phosphodiester by linkage. Methylation of C is not given here. e = 2'-O-(2-methoxyethyl) (MOE); k = constrained ethyl (cEt); d = 2'-deoxy (DNA)

As to GGCGGATAGATCTGTG (sugars k3 d10 k3, PS), the target mRNA inhibition (SK-MEL-28, 4 µM) amounted to 51%.
On to “TTATGTTAGCCAATTC (sugars kdddddddddkekeke, PS)”, for which, under “MM.1R, 1 µM”, the target mRNA inhibition is 9% and 2%.
On to AAAGATGCCAGAGGGC (sugars k3 d10 k3, PS), for which the target mRNA inhibition (SK-MEL-28, 4 µM) amounted to 23%.
With CAAGACAGGTCTCTAC (sugars k3 d10 k3, PS), where the note is “SK-MEL-28, 4 µM”, the target mRNA inhibition stood at 34%.
With GCGCATAGGTCCTTCA (sugars k3 d10 k3, PS), the target mRNA inhibition (SK-MEL-28, 4 µM) was determined as 63%.
Regarding “TGTGTATTACTCTTAG (sugars kdddddddddkekeke, PS)”, the target mRNA inhibition (MM.1R, 1 µM) is 32% and 52%.
CGTCAAGGAGGCCTGG (sugars k3 d10 k3, PS): for the setting “SK-MEL-28, 4 µM”, the target mRNA inhibition was 43%.
CTTAGGCACATCAATG (sugars k3 d10 k3, PS): the target mRNA inhibition (MM.1R, 1 µM) came out at 8%.
TCTAACCCTAATCCTA (sugars k3 d10 k3, PS): the target mRNA inhibition (SK-MEL-28, 4 µM) was 5%.
The same measure, in the same setting: the value for GGCCTTGGAGCCCAAA (sugars k3 d10 k3, PS) was 20%; that for AACAGATAGTTAAGTA (sugars k3 d10 k3, PS) was 19%; that for AGCCGAAGCATTTTAT (sugars k3 d10 k3, PS) was 44%.
“GCAGTGATGTCAGGTT (sugars e1 k2 d9 k2 e2, PS)”: the target mRNA inhibition reads like this: (MM.1R, 0.074 µM) 15%; (MM.1R, 0.222 µM) 33%; (MM.1R, 0.666 µM) 52%; (MM.1R, 1 µM) 56%; (MM.1R, 2 µM) 75%.
On to CACCGAACACACCAGG (sugars k3 d10 k3, PS), for which the target mRNA inhibition (SK-MEL-28, 4 µM) was found to be 20%.
Turning to TCAAAGTCATTGCTCT (sugars k4 d8 k4, PS), the target mRNA inhibition (MM.1R, 0.074 µM) was -3%; the target mRNA inhibition (MM.1R, 0.222 µM) was determined as 6%; the target mRNA inhibition (MM.1R, 0.666 µM) came to 6%; the target mRNA inhibition (MM.1R, 2 µM) stood at 13%; the target mRNA inhibition (SK-MEL-28, 0.185 µM) was 4% and -4% and 0%; the target mRNA inhibition (SK-MEL-28, 4 µM) came out at 57%.
Take TCTATAGTGTTCCAGG (sugars k3 d10 k3, PS): the target mRNA inhibition (SK-MEL-28, 4 µM) came out at 80%.
On the same count and under the same terms, the value for CGCGCAAAGGGCAAGG (sugars k3 d10 k3, PS) was 34%.
Take GTAATAGTAAATATCC (sugars k3 d10 k3, PS): the target mRNA inhibition (SK-MEL-28, 4 µM) was 61%.
Still for that read-out and setting: the value for AAAAAAGGTGCAAGCC (sugars k3 d10 k3, PS) was 7%.
As to TAAAACCTCATCCCCT (sugars k3 d10 k3, PS), under “SK-MEL-28, 4 µM”, the target mRNA inhibition was -26%.
As to AAGTTCATGTAAAGTC (sugars k3 d10 k3, PS), the target mRNA inhibition (MM.1R, 1 µM) was 43% and 41%.
On to “TGATAGCTGAGCTGAT (sugars kkdddddddddkdkdk, PS)”, for which the target mRNA inhibition (MM.1R, 1 µM) was -22%.
With GATCATCAACTTCTTT (sugars k3 d10 k3, PS), the target mRNA inhibition (SK-MEL-28, 4 µM) amounted to 43%.
Consider GAATGCATAACACGGT (sugars k3 d10 k3, PS), for which, where the note is “SK-MEL-28, 4 µM”, the target mRNA inhibition was 61%.
AACCTTAAGCTATTTG (sugars k3 d10 k3, PS): the target mRNA inhibition is, setting by setting: (MM.1R, 0.0625 µM) -10%; (MM.1R, 0.25 µM) -5%; (MM.1R, 4 µM) 48%.
With TCCCAACCCGCTTCTC (sugars k3 d10 k3, PS), the target mRNA inhibition (SK-MEL-28, 4 µM) turned out to be 14%.
In the case of TGCTTATCAATGCCAA (sugars k3 d10 k3, PS), the target mRNA inhibition (MM.1R, 0.074 µM) turned out to be 12%; the target mRNA inhibition (MM.1R, 0.222 µM) was found to be 12%; the target mRNA inhibition (MM.1R, 0.666 µM) worked out at 16%; the target mRNA inhibition (MM.1R, 1 µM) was 35% and 31%; the target mRNA inhibition (MM.1R, 2 µM) is 50%; the target mRNA inhibition (MM.1R, 4 µM) is 69% and 66%. For the same sequence, for the setting “SK-MEL-28, 4 µM”, the target mRNA inhibition turned out to be 70%.
As to “TCTATAGTGTTCCAGG (sugars kkdddddddddkdkdk, PS)”, the target mRNA inhibition (MM.1R, 0.074 µM) turned out to be 22%; the target mRNA inhibition (MM.1R, 0.222 µM) amounted to 28%; the target mRNA inhibition (MM.1R, 0.666 µM) came to 45%; the target mRNA inhibition (MM.1R, 1 µM) stood at 50%; the target mRNA inhibition (MM.1R, 2 µM) worked out at 72%.
For TCCACGCGCGGAGGAC (sugars k3 d10 k3, PS), the target mRNA inhibition (MM.1R, 1 µM) was -43%.
As to GAAAATCTGGATGAGC (sugars k3 d10 k3, PS), the target mRNA inhibition (MM.1R, 0.0625 µM) amounted to 7%; the target mRNA inhibition (MM.1R, 0.074 µM) is 11%; the target mRNA inhibition (MM.1R, 0.222 µM) is -1%; the target mRNA inhibition (MM.1R, 0.25 µM) amounted to 8%; the target mRNA inhibition (MM.1R, 0.666 µM) was -26%; the target mRNA inhibition (MM.1R, 1 µM) came to 22%. Further, the target mRNA inhibition (MM.1R, 4 µM) was 59% and the target mRNA inhibition (SK-MEL-28, 4 µM) turned out to be 64%.
In the case of ACTGGGTACATGGCAG (sugars k3 d10 k3, PS), the target mRNA inhibition (SK-MEL-28, 4 µM) stood at 59%.
The same measure, in the same setting: the value for TGGACATCTGCGGGTC (sugars k3 d10 k3, PS) was 44%; that for ACTGCTGTGTGTCAAA (sugars k3 d10 k3, PS) was -6%.
With CCTGAGACAAGTGCTA (sugars k3 d10 k3, PS), the target mRNA inhibition (SK-MEL-28, 4 µM) came out at 43%.
Same read-out and setting: the value for CCACTATTCGAGAGAA (sugars k3 d10 k3, PS) was 57%.
On the same count and under the same terms, the value for ACATAAAGGACCCCGC (sugars k3 d10 k3, PS) was 28%.
The same measure, in the same setting: the value for AGGGTCACAGGTAAGG (sugars k3 d10 k3, PS) was 68%; that for CACTACCTGCAGCCAA (sugars k3 d10 k3, PS) was 31%.
Consider GGACCTGGTCCAGGTT (sugars k3 d10 k3, PS), for which the target mRNA inhibition (SK-MEL-28, 4 µM) is -2%.
As to AATCTTCTGGATTGCT (sugars k3 d10 k3, PS), the target mRNA inhibition (MM.1R, 1 µM) was found to be 14%.
Turning to GTCTTAGGTGTTCAAG (sugars k3 d10 k3, PS), the target mRNA inhibition (SK-MEL-28, 4 µM) was 56%.
In the case of ACTTATAGCACTCTCC (sugars k3 d10 k3, PS), the target mRNA inhibition (MM.1R, 1 µM) stood at 1%.
On to CGTAACAACGACACAC (sugars k3 d10 k3, PS), for which the target mRNA inhibition (MM.1R, 1 µM) was -35%.
As for TACTCACGAGCACCTC (sugars k3 d10 k3, PS), the target mRNA inhibition (SK-MEL-28, 4 µM) was 41%.
For the sequence CAGATTAATAGTAAGT (sugars k3 d10 k3, PS), the target mRNA inhibition (MM.1R, 1 µM) is -12%.
As for AATCAGATGTCACTGA (sugars k3 d10 k3, PS), for the setting “SK-MEL-28, 4 µM”, the target mRNA inhibition is 3%.
Regarding AGCCAGAGCAGTAAAC (sugars k3 d10 k3, PS), the target mRNA inhibition (SK-MEL-28, 4 µM) came out at 15%.
Same read-out and setting: the value for ACGCAGTGCACCTGTG (sugars k3 d10 k3, PS) was -7%; that for CAAAACGGACTGGAAC (sugars k3 d10 k3, PS) was 16%; that for GCCCAATACATATCCA (sugars k3 d10 k3, PS) was 58%.
Turning to AATAAAGACCTTAACC (sugars k3 d10 k3, PS), for the setting “SK-MEL-28, 4 µM”, the target mRNA inhibition is 11%.
For the sequence “CAAGCAGTGATGTCAG (sugars kddddddddddkekek, PS)”, the target mRNA inhibition (MM.1R, 1 µM) is 35% and 43%.
Take GGAAAGAGGCACCCTC (sugars k3 d10 k3, PS): where the note is “SK-MEL-28, 4 µM”, the target mRNA inhibition came out at 28%.
Consider ACCGGTAGAGTGAGAT (sugars k3 d10 k3, PS), for which the target mRNA inhibition (MM.1R, 1 µM) is 16% and 2%.
Regarding TATATATGACGACTTA (sugars k3 d10 k3, PS), where the note is “SK-MEL-28, 4 µM”, the target mRNA inhibition came to 20%.
On the same count and under the same terms, the value for CCCCAAGGCTACAGGC (sugars k3 d10 k3, PS) was 25%.
As for CCAGAGGACCACGCCC (sugars k3 d10 k3, PS), where the note is “SK-MEL-28, 4 µM”, the target mRNA inhibition was 28%.
The same measure, in the same setting: the value for CCTAGATAACATGAGA (sugars k3 d10 k3, PS) was 26%; that for AATGTTCAGCTTTTCC (sugars k3 d10 k3, PS) was 63%; that for TCCAAAGCATAGAGTC (sugars k3 d10 k3, PS) was 53%.
Regarding CTGAGACTACACCTAC (sugars k3 d10 k3, PS), under “MM.1R, 1 µM”, the target mRNA inhibition is -40%.
AACTTACAGGACTATT (sugars k3 d10 k3, PS): the target mRNA inhibition (SK-MEL-28, 4 µM) amounted to 13%.
As for GGGTATTTATAACCGG (sugars k3 d10 k3, PS), the target mRNA inhibition is -16% and 5% and 1% (MM.1R, 0.0625 µM); -4% (MM.1R, 0.074 µM); -19% (MM.1R, 0.222 µM); -4% (MM.1R, 0.666 µM); 1% and 7% and 26% (MM.1R, 1 µM); 9% (MM.1R, 2 µM). Besides, the target mRNA inhibition is 12% and 24% and 34% (MM.1R, 4 µM); 59% (SK-MEL-28, 4 µM).
Turning to GGCCTGGAGGTGACGC (sugars k3 d10 k3, PS), for the setting “SK-MEL-28, 4 µM”, the target mRNA inhibition was 41%.
As to ATGTGTATTACTCTTA (sugars k3 d10 k3, PS), the target mRNA inhibition (MM.1R, 1 µM) is 52% and 49%.
On to GCTGTCGATCTGGTCG (sugars k3 d10 k3, PS), for which, under “SK-MEL-28, 4 µM”, the target mRNA inhibition worked out at 9%.
“TGTTACCGATGCTTCA (sugars kkdddddddddkekek, PS)”: under “MM.1R, 1 µM”, the target mRNA inhibition was 28% and 21%.
Consider CAGGTTTCATTTCATT (sugars k3 d10 k3, PS), for which the target mRNA inhibition is -1% (MM.1R, 0.074 µM); 13% (MM.1R, 0.222 µM); 10% (MM.1R, 0.666 µM); 39% (MM.1R, 2 µM); 15% (SK-MEL-28, 0.185 µM); 60% (SK-MEL-28, 4 µM). The target mRNA inhibition runs as follows: (SK-MEL-28, 5 µM) 71%; (SK-MEL-28, 15 µM) 91%.
Regarding CATTCTAACAGATAAC (sugars k3 d10 k3, PS), the target mRNA inhibition (SK-MEL-28, 4 µM) was -2%.
For the sequence ACTGAACCATGTTCCT (sugars k3 d10 k3, PS), the target mRNA inhibition (SK-MEL-28, 4 µM) worked out at 51%.
Same read-out and setting: the value for GTAAAGCCCAAAGTTA (sugars k3 d10 k3, PS) was 27%; that for TTTATGAGCTTCCACA (sugars k3 d10 k3, PS) was 54%.
With “TTGATGTGATAGCTGA (sugars kkddddddddddkeke, PS)”, the target mRNA inhibition (MM.1R, 1 µM) turned out to be 11%.
As to CTTTATGCGAAGAATT (sugars k3 d10 k3, PS), the target mRNA inhibition (SK-MEL-28, 4 µM) stood at 30%.
Still for that read-out and setting: the value for GGAGAAGTCCCGTGGA (sugars k3 d10 k3, PS) was 59%; that for CCGCAGCATCGAACTC (sugars k3 d10 k3, PS) was 42%.
As for TTTACTGTTACCGATG (sugars k3 d10 k3, PS), the target mRNA inhibition (SK-MEL-28, 4 µM) came out at 48%.

The values above are taken from the OligoGym collection.
